Test results published in patent US10881642B2, “Autophagy enhancer and use thereof” (Industry-Academic Cooperation Foundation, Yonsei University, priority 2016, dated 2021).
Entries after “also recorded” stand apart in the source; their conditions may differ. Marks after values point to notes of the source that are not given here.

Tests used:
TFEB = TFEB nuclear translocation in TFEB-GFP HeLa cells; assay type: cell-based; conditions: 4 hrs
Protocol: FIG. 3A is the graph showing the percentage of nuclear translocated TFEB for which TFEB-GFP HeLa cells were treated with MSL compound for 4 hrs and then nuclei of the cells were stained with DAPI. FIG. 3B is the results of the experiments in which HeLa cells were incubated in the presence of MSL compound or vehicle control for 24 hrs and then the acidic vesicular organelles formed were stained with acridine orange. FIG. 3C is the results of the experiments in which TFEB-GFP HeLa cells were treated with MSL compound or vehicle control for 4 hrs and then the cells were immunoblotted with the antibodies indicated. FIG. 3D and FIG. 3E is the result of measuring the calcineurin activity in the lysates of Hepa1c1c7 cells treated with the compounds indicated. Error bars, S.D. **, P<0.01;***, P<0.001.
FIG. 10 is the result of the experiments using compound of formula 2 (hereinafter referred to as MSL-7) of the present disclosure as an autophagic enhancer. FIG. 10A is the result of immuneblot using the antibodies indicated using Hela cells treated with MSL or MSL-7. FIG. 10B is the result of measuring the viability of Hela cells treated with vehicle control or various concentration of MSL-7 (50-100 μM) for 48 hrs. FIG. 10C is the result of DAPI stained nuclei of TFEB-GFP HeLa cells which were treated with vehicle control or MSL-7 for 4 hrs. The graph indicates the percentage of TFEB translocated into the nuclei. Error bars, S.D. *, P<0.05; **, P<0.01; ***, P<0.001.
Screening of autophagy enhancer. […] Luciferase assay. […] Firefly luciferase was determined after mixing 5 μl of lysate with 25 μl of Luciferase Assay Reagent II. Renilla luciferase was then determined after further addition of 20 ul of Stop&Glo Reagent. […] Cytotoxicity was determined by the measurement of LDH release in cell culture media using the LDH kit (Roche), according to the protocol from the manufacturer. […] Imaging and image quantification. […] Formation of acidic vesicular organelles was quantitated by staining the cells with acridine orange (Invitrogen, 5 ug/ml, 10 min). […]

calcineurin = assay: Calcineurin phosphatase activity assay; assay type: cell-based; conditions: lysates of Hepa1c1c7 cells
ob/ob mice = assay: Toxicity: hemogram, blood chemistry and organ biopsy in ob/ob mice; assay type: in vivo; parameters: BUN: unit not given here; conditions: for level of liver enzymes: 8-week treatment; for CBC / fatty liver (major organ biopsy) / tissue histology of major organs (heart, kidney, muscle, spleen, lung, pancreas): 8 weeks; for tissue histology of major organs (heart, kidney, muscle, spleen, lung, pancreas): biopsy; for ALB / ALP / ALT / AST / BUN / CA / CPK / CRE / DBIL / GGT / LDH / TCHO / TG: blood chemistry; for BASO / EOS / MONO / NEU / LYM / WBC / RBC / HGB / HCT / PLT: hemogram; for BASO / EOS: normal range 0.0-0.2; for MONO: normal range 0.0-0.4; for NEU: normal range 0.1-2.4; for LYM: normal range 0.9-9.3; for WBC: normal range 1.8-10.7; for RBC: normal range 6.36-9.42; for HGB: normal range 11.0-15.1; for HCT: normal range 38.5-59.0; for PLT: normal range 592-2972
Protocol: Organs were harvested from ob/ob mice administered with MSL or MSL-7 for 8 weeks and stained with H&E for histological analysis. […] Other than that, no significant changes were observed (Scale Bar. 500 μm). […]
Finally, we studied whether MSL or MSL-7 has systemic toxicity. CBC was not changed by MSL or MSL-7 (Table 1).
Finally, in the present disclosure, the toxicity of the present enhancers were tested. The 8-week treatment of MSL or MSL-7 improved the metabolic profile, and reduced the level of liver enzymes (Table 1 below). […] In the major organ biopsy, there were found no side effects. Rather the fatty liver was improved (FIG. 14).
Table 1 indicates the hemogram and blood chemistry analyzed after administration of the present autophagy enhancer for 8 week in vivo. […] Other than that, there are no adverse changes were found.

Row | Compound | TFEB nuclear translocation (TFEB) | calcineurin activity (calcineurin) | level of liver enzymes (ob/ob mice) | CBC (ob/ob mice) | fatty liver (major organ biopsy) (ob/ob mice) | tissue histology of major organs (heart, kidney, muscle, spleen, lung, pancreas) (ob/ob mice) | ALB (ob/ob mice; 8 week) [g/dL] | ALP (ob/ob mice; 8 week) | ALT (ob/ob mice; 8 week) | AST (ob/ob mice; 8 week) | BUN (ob/ob mice; 8 week) | CA (ob/ob mice; 8 week) [mg/dL] | CPK (ob/ob mice; 8 week) [U/L] | CRE (ob/ob mice; 8 week) [mg/dL] | DBIL (ob/ob mice; 8 week) [mg/dL] | GGT (ob/ob mice; 8 week) [U/L] | LDH (ob/ob mice; 8 week) | TCHO (ob/ob mice; 8 week) [mg/dL] | TG (ob/ob mice; 8 week) | BASO (ob/ob mice; 8 week) [K/μL] | other results
1 | CSc1oc(-c2ccccc2)nc1S(=O)(=O)c1ccc(F)cc1 [MSL] | translocated to the nuclei in the majority of MSL-treated HeLa cells | significantly increased | reduced | not changed | improved | no significant alteration | 1.1 ± 0.10 | 267 ± 35.02^b U/L | 183.7 ± 35.71^b U/L | 158.1 ± 16.39^c U/L | 21.13 ± 1.38 | 11.13 ± 0.24 | 323.8 ± 29.68 | 0.75 ± 0.14 | <0.5 | <5 | 1428 ± 148.90^b U/L | 150 ± 12.22 | 13.9 ± 16.41^a mg/dL | 0.05 ± 0.01 | percentage of nuclei showing TFEB positivity (TFEB; compared to untreated cells): greatly increased; EOS (ob/ob mice; 8 week): 0.165 ± 0.06 K/μL; MONO (ob/ob mice; 8 week): 0.35 ± 0.109 K/μL; NEU (ob/ob mice; 8 week): 2.34 ± 0.51 K/μL; LYM (ob/ob mice; 8 week): 4.73 ± 0.95 K/μL; WBC (ob/ob mice; 8 week): 7.64 ± 1.54 K/μL; RBC (ob/ob mice; 8 week): 8.82 ± 0.54 M/μL; HGB (ob/ob mice; 8 week): 14.30 ± 0.56 g/dL; HCT (ob/ob mice; 8 week): 46.9 ± 2.4%; PLT (ob/ob mice; 8 week): 1081 ± 61 K/μL
2 | COc1oc(-c2ccccc2Cl)nc1S(=O)(=O)c1ccccc1 [MSL-7, 2-(2-chlorophenyl)-5-methoxy-4-(phenylsulfonyl) oxazole] | induced nuclear translocation of TFEB; also recorded: in a dose-dependent manner | calcineurin activation in a dose-dependent manner | reduced | not changed | improved | no significant alteration | 1.1 ± 1.0 | 278 ± 26.11^b U/L | 146.9 ± 21.59^b U/L | 153.8 ± 12.81^b U/L | 20 ± 0.89 | 10.75 ± 0.32 | 241.3 ± 18.19 | 1 ± 0 | <0.5 | <5 | 810 ± 112.40^c U/L | 136.9 ± 9.73 | 78.6 ± 22.50^b mg/dL | 0.01 ± 0.01 | serum TG level and LDH level compared to MSL (ob/ob mice; 8 week): significantly lower; EOS (ob/ob mice; 8 week): 0.04 ± 0.01 K/μL; MONO (ob/ob mice; 8 week): 0.28 ± 0.05 K/μL; NEU (ob/ob mice; 8 week): 1.97 ± 0.16 K/μL; LYM (ob/ob mice; 8 week): 3.97 ± 0.38 K/μL; WBC (ob/ob mice; 8 week): 6.26 ± 0.52 K/μL; RBC (ob/ob mice; 8 week): 9.22 ± 0.12 M/μL; HGB (ob/ob mice; 8 week): 13.60 ± 0.19 g/dL; HCT (ob/ob mice; 8 week): 49.25 ± 0.78%; PLT (ob/ob mice; 8 week): 1031 ± 55 K/μL
